Assay results from PMC11418212, “Characterization of four structurally diverse inhibitors of SUR2-containing KATP channels” (Channels, 2024).
Entries after “also recorded” stand apart in the source; their conditions may differ.

How the values were obtained:
Type in all cases: cell-based
[1] = molecular target: T1, Kir4.1 (Homo sapiens, UniProt P78508); experiment: Kir family selectivity thallium flux assay
T1 construct: expressed in transfected cells
T1 sequence (P78508 1-379): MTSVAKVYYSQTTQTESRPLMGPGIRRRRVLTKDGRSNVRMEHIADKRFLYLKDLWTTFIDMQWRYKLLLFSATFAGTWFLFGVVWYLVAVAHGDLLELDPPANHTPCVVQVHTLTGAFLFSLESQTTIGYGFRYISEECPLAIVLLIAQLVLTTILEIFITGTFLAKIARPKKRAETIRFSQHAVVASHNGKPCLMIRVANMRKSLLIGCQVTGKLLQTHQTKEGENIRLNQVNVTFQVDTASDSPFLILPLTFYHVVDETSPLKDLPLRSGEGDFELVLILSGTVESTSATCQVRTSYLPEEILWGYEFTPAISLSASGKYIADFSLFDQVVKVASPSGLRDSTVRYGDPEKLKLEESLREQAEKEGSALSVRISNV
Protocol: (§1) Thallium flux assays were conducted using the established methods. Stably transfected T-REx-HEK-293 cells expressing Kir6.2/SUR1 or Kir6.1/SUR2B were cultured overnight in polyamine-coated plates (black-walled, clear-bottomed; BD, Bedford, MA) at a density of 20,000 cells in 20 µl per well of cell culture media. The expression of Kir6.2/SUR1 or Kir6.1/SUR2B channels was induced by treating cells with 1 µg/ml tetracycline overnight. The following day, cells were rinsed with an assay buffer (Hanks’ Balanced Salt Solution supplied with 20 mM HEPES), loaded with the thallium-sensor dye Brilliant Thallos-AM AM (Ion Bioscience, San Marcos, TX) for 1 h, and then washed again with assay buffer to remove unincorporated dye. The cell plate was subsequently placed in a Panoptic Kinetic Imaging Plate Reader (Wavefront Bioscience, Franklin, TN) and imaged at a frequency of 1 Hz using 482/35 nm (excitation) and 536/40 nm (emission) filter sets. Kir6.1/SUR2B channels were activated with 10 µM pinacidil, whereas Kir6.1/SUR1 was activated with 30 µM VU0071063 [34]. To activate KATP channels independent of activators with ATP-depletion method, cells were treated with a cocktail of metabolic inhibitors (2.5 mM sodium cyanide and 20 mM 2-deoxy glucose) for 25 min before imagine. Control and test compounds diluted freshly from DMSO stocks into assay buffer were added to wells for four minutes before adding 0.5 mM chloride-free thallium stimulus buffer (Ion Bioscience) to initiate thallium flux through the expressed KATP channels. Thallium flux was recorded from all 384-wells for 2 min before terminating the experiment. […] Selectivity assays against other Kir channels were performed as described previously.
(§2) To begin elucidating the binding site location of VU0212387, VU0543336, VU0605768, and VU0544086, we evaluated the activity of the inhibitors against KATP channels composed of different Kir and SUR subunit combinations expressed in HEK293 cells. Specifically, the compounds were tested against Kir6.1/SUR1, Kir6.2/SUR1, Kir6.1/SUR2A, Kir6.2/SUR2A, Kir6.1/SUR2B, and Kir6.2/SUR2B at a dose of 3 µM. […] We expanded the selectivity analysis to include 10 other members of the Kir channel family.

[2] = molecular target: T2, Kir4.1/5.1 (Homo sapiens, UniProt P78508+Q9NPI9); experiment: Kir family selectivity thallium flux assay
T2 construct: expressed in transfected cells
T2 sequence (P78508 1-379): T1 sequence (P78508 1-379)
T2 sequence (Q9NPI9 1-418): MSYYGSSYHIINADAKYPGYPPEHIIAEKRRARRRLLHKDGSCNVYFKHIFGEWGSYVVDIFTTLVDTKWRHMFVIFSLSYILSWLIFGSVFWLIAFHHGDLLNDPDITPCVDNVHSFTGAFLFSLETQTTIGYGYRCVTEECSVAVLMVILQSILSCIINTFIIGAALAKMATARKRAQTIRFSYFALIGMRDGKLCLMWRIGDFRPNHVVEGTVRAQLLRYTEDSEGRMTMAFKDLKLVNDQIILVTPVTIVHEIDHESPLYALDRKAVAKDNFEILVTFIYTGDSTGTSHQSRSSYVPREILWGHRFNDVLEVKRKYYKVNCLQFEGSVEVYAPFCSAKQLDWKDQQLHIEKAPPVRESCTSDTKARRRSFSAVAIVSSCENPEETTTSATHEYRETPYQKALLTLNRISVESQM
Protocol: as §1, §2

[3] = molecular target: T3, Kir2.2 (Homo sapiens, UniProt Q14500); experiment: Kir family selectivity thallium flux assay
T3 construct: expressed in transfected cells
T3 sequence (Q14500 1-433): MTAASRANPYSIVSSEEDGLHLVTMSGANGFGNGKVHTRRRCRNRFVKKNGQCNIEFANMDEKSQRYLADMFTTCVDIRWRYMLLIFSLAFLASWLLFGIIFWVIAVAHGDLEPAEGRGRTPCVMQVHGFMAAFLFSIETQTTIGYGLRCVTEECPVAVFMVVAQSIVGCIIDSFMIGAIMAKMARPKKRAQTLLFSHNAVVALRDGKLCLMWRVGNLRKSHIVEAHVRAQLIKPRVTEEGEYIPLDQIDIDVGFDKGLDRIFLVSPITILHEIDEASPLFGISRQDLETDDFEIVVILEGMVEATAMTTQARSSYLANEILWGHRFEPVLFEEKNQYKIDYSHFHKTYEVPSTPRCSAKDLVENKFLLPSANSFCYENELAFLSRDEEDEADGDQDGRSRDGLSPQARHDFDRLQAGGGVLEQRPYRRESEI
Protocol: as §1, §2

[4] = molecular target: T4, Kir6.1/SUR2B (Homo sapiens, UniProt O60706); experiment: Thallium flux activation dose-response without channel pre-activation; settings: no channel pre-activation; doses up to 30 µM
T4 construct: expressed in transfected cells; Kir6.1 tetracycline-inducible, SUR2B constitutive
T4 sequence (O60706 1-1549 isoform O60706-2, species assumed): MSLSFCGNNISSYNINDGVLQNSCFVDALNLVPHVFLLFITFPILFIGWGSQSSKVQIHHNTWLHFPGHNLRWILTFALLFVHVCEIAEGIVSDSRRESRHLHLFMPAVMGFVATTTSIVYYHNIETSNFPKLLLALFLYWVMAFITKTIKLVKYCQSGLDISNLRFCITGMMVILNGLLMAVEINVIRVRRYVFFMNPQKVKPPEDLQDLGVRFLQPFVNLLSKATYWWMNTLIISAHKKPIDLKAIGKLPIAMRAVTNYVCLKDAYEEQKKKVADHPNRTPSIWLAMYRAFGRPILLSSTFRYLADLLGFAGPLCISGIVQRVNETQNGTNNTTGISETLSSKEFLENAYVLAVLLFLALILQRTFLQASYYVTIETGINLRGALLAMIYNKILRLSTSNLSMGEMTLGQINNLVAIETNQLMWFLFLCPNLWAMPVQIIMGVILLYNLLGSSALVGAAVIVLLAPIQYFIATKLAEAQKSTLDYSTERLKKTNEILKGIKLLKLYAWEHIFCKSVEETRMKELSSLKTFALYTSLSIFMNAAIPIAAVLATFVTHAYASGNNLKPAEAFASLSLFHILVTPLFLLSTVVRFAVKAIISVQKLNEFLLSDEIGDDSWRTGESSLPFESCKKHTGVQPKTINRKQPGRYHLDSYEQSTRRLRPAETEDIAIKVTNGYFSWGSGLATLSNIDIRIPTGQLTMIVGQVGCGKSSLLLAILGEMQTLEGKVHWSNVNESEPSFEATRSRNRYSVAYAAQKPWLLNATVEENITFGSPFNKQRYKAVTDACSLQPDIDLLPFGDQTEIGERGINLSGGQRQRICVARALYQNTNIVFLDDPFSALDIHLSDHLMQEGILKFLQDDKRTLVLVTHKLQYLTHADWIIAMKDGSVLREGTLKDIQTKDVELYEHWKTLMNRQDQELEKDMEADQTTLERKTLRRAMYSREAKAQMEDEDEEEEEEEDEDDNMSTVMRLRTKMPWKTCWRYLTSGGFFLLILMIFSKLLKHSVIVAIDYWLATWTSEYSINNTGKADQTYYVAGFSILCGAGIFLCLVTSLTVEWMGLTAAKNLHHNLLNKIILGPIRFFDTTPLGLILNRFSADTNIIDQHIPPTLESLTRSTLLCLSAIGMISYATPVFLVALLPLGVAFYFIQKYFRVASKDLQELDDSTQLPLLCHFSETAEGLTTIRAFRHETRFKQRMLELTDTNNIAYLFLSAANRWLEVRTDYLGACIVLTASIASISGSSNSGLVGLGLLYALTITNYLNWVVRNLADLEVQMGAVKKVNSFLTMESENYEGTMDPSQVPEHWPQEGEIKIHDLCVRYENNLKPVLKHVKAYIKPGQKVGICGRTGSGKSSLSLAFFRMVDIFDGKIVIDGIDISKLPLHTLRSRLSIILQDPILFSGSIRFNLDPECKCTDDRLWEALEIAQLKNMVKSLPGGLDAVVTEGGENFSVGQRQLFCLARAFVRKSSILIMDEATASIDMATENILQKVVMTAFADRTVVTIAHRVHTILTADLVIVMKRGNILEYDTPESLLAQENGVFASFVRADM
T4 sequence (Q15842 whole entry partner, species assumed): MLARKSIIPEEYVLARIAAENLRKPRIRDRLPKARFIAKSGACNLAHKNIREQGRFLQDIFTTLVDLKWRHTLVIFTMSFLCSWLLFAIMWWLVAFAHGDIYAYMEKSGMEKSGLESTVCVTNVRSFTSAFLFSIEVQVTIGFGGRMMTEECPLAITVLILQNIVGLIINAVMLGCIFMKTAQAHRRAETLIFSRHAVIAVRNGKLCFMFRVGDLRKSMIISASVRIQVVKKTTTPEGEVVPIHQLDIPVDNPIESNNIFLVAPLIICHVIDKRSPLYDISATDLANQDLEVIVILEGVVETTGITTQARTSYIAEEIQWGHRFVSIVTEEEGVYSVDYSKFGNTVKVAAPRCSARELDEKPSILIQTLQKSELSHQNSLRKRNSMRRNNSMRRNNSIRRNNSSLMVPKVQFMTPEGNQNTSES
Protocol: as §1
(§3) We therefore systematically explored this possibility in dose–response experiments against Kir6.2/SUR1 in the absence of channel pre-activation. Kir6.1/SUR2B was also evaluated for comparison.
(§4) Figure 6. Paradoxical activation of Kir6.2/SUR1. […] Fluorescence intensity at each dose was normalized to that in the absence of drug. […] (b) Activities of indicated compounds at 30 μM toward Kir6.1/SUR2B normalized to that of 30 μM pinacidil. […] (d) Activities of indicated compounds at 30 μM toward Kir6.2/SUR1 normalized to that of 30 μM VU0071063.

[5] = molecular target: Kir6.2/SUR1 (Homo sapiens, UniProt Q09428); experiment: as above; settings: no channel pre-activation; doses up to 30 µM
Kir6.2/SUR1, sequence (Q09428 whole entry, species assumed): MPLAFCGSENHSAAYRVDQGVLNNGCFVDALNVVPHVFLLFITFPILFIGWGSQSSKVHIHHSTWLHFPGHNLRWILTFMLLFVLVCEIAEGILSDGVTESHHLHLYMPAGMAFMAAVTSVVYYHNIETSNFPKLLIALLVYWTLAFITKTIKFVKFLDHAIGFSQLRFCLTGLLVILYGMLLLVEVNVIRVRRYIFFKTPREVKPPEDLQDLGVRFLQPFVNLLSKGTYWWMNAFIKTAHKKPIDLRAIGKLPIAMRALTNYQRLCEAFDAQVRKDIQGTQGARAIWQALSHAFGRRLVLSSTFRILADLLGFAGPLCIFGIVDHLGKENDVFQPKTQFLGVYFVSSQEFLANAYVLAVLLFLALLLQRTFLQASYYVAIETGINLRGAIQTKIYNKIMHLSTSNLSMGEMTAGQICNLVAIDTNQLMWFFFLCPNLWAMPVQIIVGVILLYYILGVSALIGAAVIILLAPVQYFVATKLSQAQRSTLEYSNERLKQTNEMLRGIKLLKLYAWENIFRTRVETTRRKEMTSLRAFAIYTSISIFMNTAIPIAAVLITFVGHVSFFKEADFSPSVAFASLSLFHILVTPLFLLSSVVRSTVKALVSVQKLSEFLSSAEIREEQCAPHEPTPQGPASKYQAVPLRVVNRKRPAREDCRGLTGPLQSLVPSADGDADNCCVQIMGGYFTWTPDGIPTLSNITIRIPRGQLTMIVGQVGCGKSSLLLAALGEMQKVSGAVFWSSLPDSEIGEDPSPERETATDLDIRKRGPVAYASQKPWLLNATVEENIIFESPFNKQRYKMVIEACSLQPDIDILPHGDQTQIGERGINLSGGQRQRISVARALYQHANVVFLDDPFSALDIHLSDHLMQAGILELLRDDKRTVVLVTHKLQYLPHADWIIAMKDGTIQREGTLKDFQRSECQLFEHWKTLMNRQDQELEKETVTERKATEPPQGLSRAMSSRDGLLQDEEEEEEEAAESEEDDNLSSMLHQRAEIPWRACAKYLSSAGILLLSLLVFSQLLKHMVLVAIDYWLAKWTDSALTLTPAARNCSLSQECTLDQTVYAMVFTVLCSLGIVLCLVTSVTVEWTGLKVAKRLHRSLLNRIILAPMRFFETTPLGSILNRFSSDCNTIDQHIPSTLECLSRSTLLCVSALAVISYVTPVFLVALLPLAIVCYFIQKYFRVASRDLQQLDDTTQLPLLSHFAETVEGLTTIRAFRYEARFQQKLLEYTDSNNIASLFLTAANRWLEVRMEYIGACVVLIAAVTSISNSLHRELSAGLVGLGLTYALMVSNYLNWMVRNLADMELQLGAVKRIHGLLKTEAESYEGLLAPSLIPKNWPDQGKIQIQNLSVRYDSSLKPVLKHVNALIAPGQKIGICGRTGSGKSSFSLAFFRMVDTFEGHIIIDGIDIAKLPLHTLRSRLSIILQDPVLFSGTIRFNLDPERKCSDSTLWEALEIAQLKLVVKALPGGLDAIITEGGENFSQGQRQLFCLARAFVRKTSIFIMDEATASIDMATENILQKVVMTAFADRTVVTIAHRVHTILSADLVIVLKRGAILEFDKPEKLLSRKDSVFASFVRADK
Kir6.2/SUR1, sequence (Q14654 whole entry partner, species assumed): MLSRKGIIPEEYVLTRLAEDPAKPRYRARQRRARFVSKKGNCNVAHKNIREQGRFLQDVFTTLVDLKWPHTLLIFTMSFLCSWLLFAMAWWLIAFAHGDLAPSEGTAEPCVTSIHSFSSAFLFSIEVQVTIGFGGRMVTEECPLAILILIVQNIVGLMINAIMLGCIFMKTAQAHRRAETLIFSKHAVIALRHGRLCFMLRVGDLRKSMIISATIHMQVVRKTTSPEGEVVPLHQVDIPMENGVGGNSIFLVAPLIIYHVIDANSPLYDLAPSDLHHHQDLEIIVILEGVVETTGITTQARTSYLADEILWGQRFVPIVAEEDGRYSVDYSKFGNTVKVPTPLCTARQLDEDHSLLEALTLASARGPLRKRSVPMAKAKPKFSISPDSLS
Protocol: as §1, §3, §4

| SMILES | IC50 [1] [µM] | IC50 [2] [µM] | IC50 [3] [µM] | Activation of Kir6.1/SUR2B [4] | Activation of Kir6.2/SUR1 [5] |
| --- | --- | --- | --- | --- | --- |
| O=C(NCC(O)(c1ccccc1)C(F)(F)F)c1ccc(OC(F)(F)F)cc1 (centres unmarked) [VU0543336, N-(3,3,3-trifluoro-2-hydroxy-2-phenylpropyl)-4-(trifluoromethoxy)benzamide] | > 30 | > 30 | > 30 | failed to activate | dose-dependently activated; also recorded: induced dose-dependent Kir6.2/SUR1 activation; also recorded: activate Kir6.2/SUR1 at higher drug doses |
| O=C(NCc1cc(-c2ccncc2)n(C2CCCC2)n1)Nc1cccs1 [VU0544086, 1-((1-cyclopentyl-5-(pyridin-4-yl)-1 H-pyrazol-3-yl)methyl)-3-(thiophen-2-yl)urea] | > 30 | > 30 | > 30 | failed to activate | failed to activate |
| O=C1c2oc3ccccc3c(=O)c2C(c2cccc(Br)c2)N1CCO (centres unmarked) [VU0605768, 1-(3-bromophenyl)-2-(2-hydroxyethyl)-1,2-dihydrochromeno[2,3-c]pyrrole-3,9-dione] | > 30 | > 30 | > 30 | failed to activate | dose-dependently activated; also recorded: induced dose-dependent Kir6.2/SUR1 activation; also recorded: activate Kir6.2/SUR1 at higher drug doses |
| c1ccc2[nH]c(CSc3ncnc4c3oc3ccccc34)nc2c1 [VU0212387, 4-(((1 H-benzo[d]imidazol-2-yl)methyl)thio)benzofuro[3,2-d]pyrimidine] | > 30 | > 30 | > 30 | failed to activate | dose-dependently activated; also recorded: induced dose-dependent Kir6.2/SUR1 activation; also recorded: activate Kir6.2/SUR1 at higher drug doses |
